Source: US20220193256A1, “NANO-ANTIBIOTICS BASED ON SINGLE-CHAIN DEXTRAN NANOPARTICLES” (priority 2019, published 2022)
In brackets after ≈: the same amount, converted by molar mass. Marks after values point to notes of the source that are not given here.

Assays:
P. aeruginosa = test: MIC 50 of free antibiotics and nanoconjugates; assay type: cell-based
Experimental: (§1) All test and quality control strains were recovered from frozen storage (−80° C.) and cultured at 35±2° C. for 18-24 h.
(§2) All test articles were dissolved in sterile ultra-pure water at a concentration of 2.56 mg/mL. […] 100 and 200 μL of drug-free medium was added to positive and negative control wells, respectively. Suspensions equivalent to a McFarland 0.5 standard were prepared for each test strain in 5 mL sterile phosphate-buffered saline (PBS) and further diluted 1:150 in CA-MHB to provide an inoculum of 2-8×10^5 CFU/mL. 100 μL of each inoculum was dispensed into all wells—except negative control wells (100 μL sterile water added)—to provide an inoculum of ˜5×10^5 CFU/well and a final volume of 200 μL per well. Assay plates were incubated according to CLSI M07-A10 guidelines of 35±2° C. for 16-20 h in air.

S. aureus = test: MIC 50 of free antibiotics and nanoconjugates; assay type: cell-based
Experimental: as §1, §2

PACC#7 = test: MIC by visual inspection, P. aeruginosa panel; assay type: cell-based; conditions: Pseudomonas aeruginosa; PACC#7, clinical isolate, mucoid phenotype; read-out: Test Article MIC
Experimental: (§3) The clinical isolates were obtained from the Biobank of the Hospital Donostia/Biodonostia (San Sebastian, Spain) with permission. MIC is obtained by visual inspection and considered the minimum concentration at which no bacterial growth can be detected (i. e. the buffer appears transparent) when bacteria was incubated at gradient concentration of test compound.

PA14 DSMZ 19882 = test: MIC by visual inspection, P. aeruginosa panel; assay type: cell-based; conditions: Pseudomonas aeruginosa; PA14 DSMZ 19882, investigational strain; read-out: Test Article MIC
Experimental: as §3

P. aeruginosa ATCC 27853 [1] = test: MIC by visual inspection, P. aeruginosa panel; assay type: cell-based; conditions: Pseudomonas aeruginosa, ATCC27853; P. aeruginosa ATCC 27853, reference strain; read-out: Test Article MIC
Experimental: as §3

PACC#8 = test: MIC by visual inspection, P. aeruginosa panel; assay type: cell-based; conditions: Pseudomonas aeruginosa; PACC#8, clinical isolate; read-out: Test Article MIC
Experimental: as §3

PACC#6 = test: MIC by visual inspection, P. aeruginosa panel; assay type: cell-based; conditions: Pseudomonas aeruginosa; read-out: Test Article MIC
Experimental: as §3

PAO1 DSMZ 22644 = test: MIC by visual inspection, P. aeruginosa panel; assay type: cell-based; conditions: Pseudomonas aeruginosa; PAO1 DSMZ 22644, investigational strain; read-out: Test Article MIC
Experimental: as §3

PACC#5 = test: MIC by visual inspection, P. aeruginosa panel; assay type: cell-based; conditions: Pseudomonas aeruginosa; PACC#5, clinical isolate, mucoid phenotype; read-out: Test Article MIC
Experimental: as §3

PACC#9 = test: MIC by visual inspection, P. aeruginosa panel; assay type: cell-based; conditions: Pseudomonas aeruginosa; PACC#9, clinical isolate, mucoid phenotype; read-out: Test Article MIC
Experimental: as §3

PACC#10 = test: MIC by visual inspection, P. aeruginosa panel; assay type: cell-based; conditions: Pseudomonas aeruginosa; PACC#10, clinical isolate, mucoid phenotype; read-out: Test Article MIC
Experimental: as §3

[2] = Release profile test of tobramycin in PBS (dialysis tubes, LC-MS); assay type: in vitro ADME; conditions: PBS pH 7.4, 37° C.
Experimental: 1 mL dialysis tubes (Float-a-lyzer®) were used whose membrane is based on MWCO 8-10 kDa cellulose ester. […] The studies were performed in a chamber at 37° C. and stirring at 250 rpm. Samples were taken at different times and analyzed by LC-MS.

[3] = tested on: biofilm of Pseudomonas Aeruginosa PAO1 gfp; test: Testing against biofilm; assay type: cell-based; conditions: 3-day biofilm treated for 12 h, tobramycin concentration 2 μg/mL
Experimental: Continuous biofilm of Pseudomonas Aeruginosa PAO1 gfp in LB medium was grown for 3 days. […] Images were obtained using a 20×/0.80 air objective with Zeiss LSM 800 Confocal laser scanning microscope. Simulated fluorescence projections and orthogonoal views sections were processed using ImageJ software. Data were analysed with COMSTAT2 software.

A. baumannii NCTC 12156 = test: MIC, antimicrobial susceptibility test (CLSI M07-A10); assay type: cell-based
Experimental: as §1, §2

[4] = tested on: K. pneumoniae ATCC BAA-2146; test: as above; assay type: cell-based; conditions: Klebsiella pneumoniae, ATCCBAA2146; read-out: Test Article MIC
Experimental: as §1, §2

[5] = tested on: A. baumannii ATCC BAA-747; test: as above; assay type: cell-based
Experimental: as §1, §2

E. aerogenes KPC 108 = test: as above; assay type: cell-based
Experimental: as §1, §2

K. pneumoniae ATCC 43816 = test: as above; assay type: cell-based
Experimental: as §1, §2

P. aeruginosa ATCC 27853 [6] = test: as above; assay type: cell-based
Experimental: as §1, §2

E. coli ATCC 25922 = test: as above; assay type: cell-based
Experimental: as §1, §2

E. coli ATCC BAA-2469 = test: as above; assay type: cell-based; conditions: Escherichia coli, ATCCBAA2469; read-out: Test Article MIC
Experimental: as §1, §2

[7] = tested on: E. cloacae complex KPC 114; test: as above; assay type: cell-based
Experimental: as §1, §2

P. aeruginosa ATCC 13437 = test: as above; assay type: cell-based; conditions: replicates 1 and 2, as tobramycin concentration
Experimental: as §1, §2

[8] = In vivo pharmacokinetic profile in the lungs after oropharyngeal deposition; design: species or system Sprague Dawley rats; conditions: male, Sprague Dawley, rat, lung homogenate, other: oropharyngeal deposition, 10 mg/kg
Experimental: The administration technique was oropharyngeal deposition. Following administration, terminal lung samples were collected at the following time-points: 0.083, 0.25, 0.5, 1, 2, 4, 8, 12, 24 h post-dose.
For the purpose of the invention, the AUC was measured by the trapezoidal method using the following formula: […]

In the case of “gentamycin sulfate [Free Gentamycin sulfate]”, the “MIC 50, Antibiotic conc.” value (P. aeruginosa) is reported as 1 to 5 µg/mL and the “MIC 50, Antibiotic conc.” value (S. aureus) is reported as 1 to 5 µg/mL.
`NC[C@H]1O[C@H](O[C@H]2[C@H](O)[C@@H](O[C@H]3O[C@H](CO)[C@@H](O)[C@H](N)[C@H]3O)[C@H](N)C[C@@H]2N)[C@H](N)C[C@@H]1O` [Tobramycin, tobramycin] showed an MIC (PACC#7) of 0.5 µg/mL (≈ 1.07 µM), an MIC (PA14 DSMZ 19882) of 0.5 µg/mL (≈ 1.07 µM) and an MIC (P. aeruginosa ATCC 27853 [1]) of 0.5 µg/mL (≈ 1.07 µM). It also gave an MIC (PACC#8) of 0.5 µg/mL (≈ 1.07 µM), an MIC (PACC#6) of at least 4 µg/mL and an MIC (PAO1 DSMZ 22644) of 0.5 µg/mL (≈ 1.07 µM). It also gave an MIC (PACC#5) of 0.5 µg/mL (≈ 1.07 µM), an MIC (PACC#9) of 0.5 µg/mL (≈ 1.07 µM) and an MIC (PACC#10) of 1 µg/mL (≈ 2.14 µM). For the same compound, the “Tobramycin released (%)” value ([2]; time 0 hour) was 0.30%, the “Tobramycin released (%)” value ([2]; time 1 hour) was 2.91% and the “Tobramycin released (%)” value ([2]; time 2 hour) was 7.57%. For the same compound, the “Tobramycin released (%)” value ([2]; time 4 hour) was 19.03%, the “Tobramycin released (%)” value ([2]; time 8 hour) was 28.72% and the “Tobramycin released (%)” value ([2]; time 24 hour) was 58.41%. The “Tobramycin released (%)” value ([2]; time 48 hour) was 78.88%, the “Tobramycin released (%)” value ([2]; time 72 hour) was 87.20% and the “% Biomass (μm^3/μm^2)” value [3] was 68.1%. The “% Biomass (μm^3/μm^2)” value ([3]; listed as tobramycin) was 68.1%, the “MIC 50, Antibiotic conc.” value (P. aeruginosa) was 0.5 to 1 µg/mL and the “MIC 50, Antibiotic conc.” value (S. aureus) was 0.5 to 1 µg/mL. For the same compound, the “Test Article MIC” value (A. baumannii NCTC 12156; A. baumannii NCTC 12156, replicates 1 and 2, as tobramycin concentration) was 4 µg/mL, the MIC (A. baumannii NCTC 12156; Acinetobacter baumannii, NCTC12156, read-out: Test Article MIC) was 4 µg/mL (≈ 8.56 µM) and the MIC [4] was over 128 µg/mL. The “Test Article MIC” value ([5]; A. baumannii ATCC BAA-747, replicates 1 and 2, as tobramycin concentration) was 0.5 µg/mL, the MIC ([5]; Acinetobacter baumannii, ATCCBAA747, read-out: Test Article MIC) was 0.5 µg/mL (≈ 1.07 µM) and the “Test Article MIC” value (E. aerogenes KPC 108; E. aerogenes KPC 108, replicates 1 and 2, as tobramycin concentration) was 4 µg/mL. For the same compound, the MIC (E. aerogenes KPC 108; Klebsiella aerogenes, KPC108, read-out: Test Article MIC) was 4 µg/mL (≈ 8.56 µM), the “Test Article MIC” value (K. pneumoniae ATCC 43816; K. pneumoniae ATCC 43816, replicates 1 and 2, as tobramycin concentration) was 0.5 µg/mL and the MIC (K. pneumoniae ATCC 43816; Klebsiella pneumoniae, ATCC43816, read-out: Test Article MIC) was 0.5 µg/mL (≈ 1.07 µM). The “Test Article MIC” value (P. aeruginosa ATCC 27853 [6]; P. aeruginosa ATCC 27853, replicates 1 and 2, as tobramycin concentration) was 1^b μg/mL, the MIC (P. aeruginosa ATCC 27853 [6]; Pseudomonas aeruginosa, ATCC27853, read-out: Test Article MIC) was 1 µg/mL (≈ 2.14 µM) and the “Test Article MIC” value (E. coli ATCC 25922; E. coli ATCC 25922, replicates 1 and 2, as tobramycin concentration) was 2^a μg/mL. The MIC (E. coli ATCC 25922; Escherichia coli, ATCC25922, read-out: Test Article MIC) was 2 µg/mL (≈ 4.28 µM), the MIC (E. coli ATCC BAA-2469) was over 128 µg/mL and the “Test Article MIC” value ([7]; E. cloacae complex KPC 114, replicates 1 and 2, as tobramycin concentration) was 32 µg/mL. For the same compound, the MIC ([7]; Enterobacter cloacae, read-out: Test Article MIC) was 32 µg/mL (≈ 68.4 µM), the “Test Article MIC” value (P. aeruginosa ATCC 13437; P. aeruginosa ATCC 13437, listed as Free Tobramycin) was 64 µg/mL and the MIC (P. aeruginosa ATCC 13437; Pseudomonas aeruginosa, ATCC13437, P. aeruginosa ATCC 13437, read-out: Test Article MIC) was 128 µg/mL (≈ 274 µM). For the same compound, the AUC [8] was 1110 µg·h/mL.
In the case of “Colistin sulfate [Free Colistin sulfate]”, the “MIC 50, Antibiotic conc.” value (P. aeruginosa) is reported as 1 to 5 µg/mL.
